Results as given in US12138299B2, “Aldehyde dehydrogenase producing bacteria and methods of using same” (Children's Hospital Medical Center, priority 2021, dated 2024).

Experiments:
C. rodentium [1] = experiment: C. rodentium in vitro culture, bacterial density (OD600); format: cell-based, Citrobacter rodentium; settings: 1 nM-10 μM RA
C. rodentium [2] = experiment: C. rodentium infection, CFUs in stool; format: in vivo, mice; settings: day 6 p.i.
Procedure: (§1) METHOD DETAILS C. rodentium infections Mice were orally infected with 109 colony-forming units (CFUs) of C. rodentium suspended in sterile PBS. Post-infection CFUs were measured in stool homogenized in 500 μl PBS in a Tissue Lyser II at 30 Hz for 3 min. Homogenates were serially diluted 10-fold on MacConkey agar (BD) and CFUs were counted after 16 hr incubation at 37° C., normalized to fecal weight. For RA studies, mice were orally gavaged with 300 μg RA or vehicle (DMSO) in 100 μl corn oil q.d. 5 days prior to and during the infection. For RAR inhibitor (RARi) studies, 400 μg BMS493 (Torcis Bioscience) suspended in 10% DMSO/corn oil was administered to mice via oral gavage q.o.d. over 6 days pre-infection and 6 days post-infection. For Aldh1a2 inhibition, mice were orally gavaged with 400 mg/kg of WIN 18446 (Cayman Chemical) or vehicle (DMSO) in 100 μl corn oil for 8 days q.o.d.

bcALDH1A1 = experiment: Expression of ALDH by B. cereus cultured -/+ ROL; settings: B. cereus cultured with retinol
Saa1/2 = Saa1/2 mRNA expression in intestinal organoids; format: cell-based, Murine; settings: 1 μM WIN 18446
Procedure: Intestinal Organoids Murine organoids were generated from ileal IECs isolated from male WT C57BL/6J mice as previously described (Woo et al., 2019; Wu et al., 2020). Dissected terminal ileums (12 cm) were opened longitudinally, scraped to remove intestinal contents and outer cells, washed repeatedly in ice-cold PBS, and cut into 1 cm pieces. Ileum pieces were incubated in Chelation Buffer (2 mM EDTA in PBS) for 30 min at 4° C. with rotation. Tissues were subsequently transferred into new tubes containing Shaking Buffer (PBS, 43.3 mM sucrose, 54.9 mM sorbitol) and gently shaken by hand for 2-4 mins. Ileal crypts were resuspended and plated in Matrigel (Corning) overlaid with 500 μl organoid culture media (60% Advanced DMEM/F12 media supplemented with 10 mM HEPES, 2 mM […], 40% L-WRN conditioned media, 1×N2 supplement, 1×B27 supplement, 50 ng/mL murine EGF, and 10 μM Y-27632 ROCK inhibitor). Culture media was refreshed every 3-4 days. Organoid cultures were treated with 1 μM Aldh1a2 inhibitor WIN 18446 (Cayman Chemical) for 12 hours and then stimulated with 100 μl of SFB contents at 150 mg/ml PBS for 24 hours. For bacterial culture treatments in organoids, 100 μl of liquid cultures were directly added to organoids containing 1 μM retinol for 24 hours. After incubation, organoids were washed 3 times in PBS and lysed using the RNeasy kit (Qiagen).

mammalian ALDH = experiment: Aldehyde dehydrogenase activity in mouse tissues; format: in vivo; settings: liver of mice treated with WIN18446, 400 mg/kg oral gavage q.o.d. 8 days
Procedure: as §1, with “For Aldh1a2 inhibition, mice were orally gavaged with 400 mg/kg of WIN 18446 (Cayman Chemical) or vehicle (DMSO) in 100 μl corn oil for 8 days q.o.d.” left out
Aldehyde dehydrogenase activity Samples were homogenized in ice-cold ALDH assay buffer (Sigma, MAK082) for 3 min at 30 Hz and spun down at 13,000×g for 10 min. ALDH activity was measured according to manufacturer's instructions (Sigma, MAK082). Briefly, 50 μl of supernatants with equal protein concentrations determined using Pierce BCA Protein Assay Kit (Thermo Scientific) were combined with ALDH substrate and acetaldehyde in 96-well plates. […] Enzymatic activity was calculated as a function of amount NADH generated over time.

[3] = test system: downstream gene expression; experiment: Relative mRNA expression in liver of WIN18446-treated mice; format: in vivo; settings: mice treated with WIN18446
Procedure: as §1

SFB = SFB DNA in feces by qPCR; format: in vivo, mice

## CC1=C(/C=C/C(C)=C/C=C/C(C)=C/C(=O)O)C(C)(C)CCC1 [RA, all-trans retinoic acid]
C. rodentium [1]
  C. rodentium growth and viability: not directly impaired
C. rodentium [2]; GF mice, 300 μg RA oral gavage q.d. prior to and during infection
  Protection against C. rodentium (CFUs in stool): sufficient to protect GF mice against C. rodentium
C. rodentium [2]; Nos2−/− mice, exogenous RA
  C. rodentium pathogen levels (CFUs in stool): did not alter pathogen levels
C. rodentium [2]; WT mice, exogenous RA
  C. rodentium infection (CFUs in stool): decreased C. rodentium infection
C. rodentium [2]; control dnRAR^FF mice, RA-treatment
  C. rodentium infection (CFUs in stool): decreased infection
C. rodentium [2]; dnRAR^IEC mice, RA-treatment
  RA-induced protection against C. rodentium: greatly reduced

## CC1=C(/C=C/C(C)=C/C=C/C(C)=C/CO)C(C)(C)CCC1 [retinol, all-trans retinol]
bcALDH1A1
  bcALDH1A1 expression by B. cereus: increased bcALDH1A1 expression

## O=C(NCCCCCCCCNC(=O)C(Cl)Cl)C(Cl)Cl [WIN18446]
Saa1/2
  Basal Saa1/2 expression in intestinal organoids: decreased basal Saa1/2 expression
Mammalian ALDH
  Mammalian ALDH enzymatic activity: decreased mammalian ALDH enzymatic activity
[3]
  Downstream gene expression (relative mRNA in liver): decreased
SFB; following WIN18446 administration
  SFB levels in the intestine (SFB DNA in feces): similar

## CC1(C)CC=C(C#Cc2ccccc2)c2cc(/C=C/c3ccc(C(=O)O)cc3)ccc21 [BMS493]
C. rodentium [2]; GF mice treated with RARi
  C. rodentium pathogen levels (CFUs in stool): largely unaffected
C. rodentium [2]; SFB-colonized mice treated with RARi
  Protective effect of SFB against C. rodentium (CFUs in stool): abrogated the protective effect of SFB against C. rodentium
SFB; RARi (BMS493) treatment, 400 μg oral gavage q.o.d.
  SFB colonization (SFB DNA in feces): did not alter SFB colonization
